Data taken from article PMC8890504, “Evolution of Brain-Expressed Biogenic Amine Receptors into Olfactory Trace Amine-Associated Receptors” (Molecular Biology and Evolution, 2022).
Where “and” joins values, the source holds several entries; their conditions need not be identical. Identical values can stand only once.

Key:
zebrafish TAAR12j = zebrafish TAAR12j (Danio rerio, UniProt Q5QNN7); assay: Cell-based receptor activation reporter assay (SEAP / Dual-Glo luciferase)
Description: (§1) Fluorescence was measured with a BioTek Microplate reader.

guinea pig TAAR4 = guinea pig TAAR4 (Cavia porcellus, UniProt H0W119); assay: as above
guinea pig TAAR4, sequence (H0W119 entry or part of it): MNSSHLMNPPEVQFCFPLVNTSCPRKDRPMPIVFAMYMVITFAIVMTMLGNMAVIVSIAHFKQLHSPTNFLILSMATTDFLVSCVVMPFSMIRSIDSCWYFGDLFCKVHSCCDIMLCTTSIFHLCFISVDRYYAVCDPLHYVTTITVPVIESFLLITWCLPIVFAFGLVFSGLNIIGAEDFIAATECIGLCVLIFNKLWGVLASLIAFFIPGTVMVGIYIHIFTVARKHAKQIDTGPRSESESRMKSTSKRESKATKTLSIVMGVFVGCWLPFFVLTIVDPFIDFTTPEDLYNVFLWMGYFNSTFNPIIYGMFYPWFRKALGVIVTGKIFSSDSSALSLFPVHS
Description: as §1

cat TAAR4 = cat TAAR4 (Felis catus, UniProt A0ABI7X9K0); assay: as above
cat TAAR4, sequence (A0ABI7X9K0 entry or part of it): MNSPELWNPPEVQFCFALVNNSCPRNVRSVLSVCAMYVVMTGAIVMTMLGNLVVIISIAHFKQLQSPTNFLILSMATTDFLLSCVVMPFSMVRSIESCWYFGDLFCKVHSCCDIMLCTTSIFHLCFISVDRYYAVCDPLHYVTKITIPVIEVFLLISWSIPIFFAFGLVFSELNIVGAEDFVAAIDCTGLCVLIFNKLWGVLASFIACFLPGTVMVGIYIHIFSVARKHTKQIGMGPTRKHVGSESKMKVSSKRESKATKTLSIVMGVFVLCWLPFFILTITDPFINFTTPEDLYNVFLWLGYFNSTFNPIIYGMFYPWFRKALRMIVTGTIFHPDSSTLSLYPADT
Description: as §1

cow TAAR4 = cow TAAR4 (Bos taurus, UniProt F1MNY9); assay: as above
cow TAAR4, sequence (F1MNY9 entry or part of it): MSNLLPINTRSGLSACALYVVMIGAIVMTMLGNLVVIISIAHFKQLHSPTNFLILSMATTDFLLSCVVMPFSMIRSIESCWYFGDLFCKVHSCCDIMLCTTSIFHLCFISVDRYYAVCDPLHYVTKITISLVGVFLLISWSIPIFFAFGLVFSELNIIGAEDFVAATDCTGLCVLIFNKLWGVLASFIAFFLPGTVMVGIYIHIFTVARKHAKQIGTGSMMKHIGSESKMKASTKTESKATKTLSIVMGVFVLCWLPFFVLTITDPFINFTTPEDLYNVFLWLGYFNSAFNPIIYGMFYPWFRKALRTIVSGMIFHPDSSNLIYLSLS
Description: as §1

horse TAAR4 = horse TAAR4 (Equus caballus, UniProt F7BPI5); assay: as above
horse TAAR4, sequence (F7BPI5 entry or part of it): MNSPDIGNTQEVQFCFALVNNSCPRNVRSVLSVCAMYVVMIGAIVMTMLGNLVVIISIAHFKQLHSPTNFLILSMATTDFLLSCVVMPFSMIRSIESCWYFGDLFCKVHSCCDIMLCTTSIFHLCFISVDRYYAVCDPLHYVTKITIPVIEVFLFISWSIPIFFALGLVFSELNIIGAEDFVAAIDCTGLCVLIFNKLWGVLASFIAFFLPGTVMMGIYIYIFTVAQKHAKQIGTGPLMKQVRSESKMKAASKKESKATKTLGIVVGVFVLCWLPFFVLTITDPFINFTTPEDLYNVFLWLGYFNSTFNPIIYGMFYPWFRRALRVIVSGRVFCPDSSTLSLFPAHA
Description: as §1

hamster TAAR4 = hamster TAAR4 (Mesocricetus auratus, UniProt A0A1U7Q3I9); assay: as above
hamster TAAR4, sequence (A0A1U7Q3I9 entry or part of it): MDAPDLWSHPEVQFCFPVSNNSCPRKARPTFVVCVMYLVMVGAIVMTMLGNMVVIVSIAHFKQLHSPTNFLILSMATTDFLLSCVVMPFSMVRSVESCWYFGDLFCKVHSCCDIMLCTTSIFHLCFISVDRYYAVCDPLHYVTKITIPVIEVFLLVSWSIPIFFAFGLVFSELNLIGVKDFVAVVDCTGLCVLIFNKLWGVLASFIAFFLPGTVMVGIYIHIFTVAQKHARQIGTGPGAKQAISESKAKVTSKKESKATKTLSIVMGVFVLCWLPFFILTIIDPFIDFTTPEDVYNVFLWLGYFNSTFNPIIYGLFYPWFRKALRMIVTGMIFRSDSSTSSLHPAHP
Description: as §1

TARL1 = assay: Response to 16 ligands at 10 µM, luciferase assay; assay type: cell-based; details: fig. 5B
Description: (§2) Ligand profiles and expression patterns of HTR4, TARL, and TAAR1. (A) qPCR analysis of different receptors in zebrafish tissues. Gapdh serves as a control. (B) Response of HTR4, TARL, TAARC1, and TAAR1 to 16 ligands at 10 μM. The heatmap is based on the ratio of fluorescence intensity of ligand–receptor interaction and no ligand controls in the luciferase assay. […] (C) PhyloPCA analysis on the responses of HTR4, TARL, TAARC1, and TAAR1 to these 16 ligands. […] Dots colored by receptor clades represent the ligand responses of receptors on the first two PC axes. Ligand eigenvectors are represented by lines and colored according to the ligand clusters. A ligand name is shown at the tip of the line if its eigenvector has a higher contribution (compared with other ligands) to either PC1 or PC2. […] (D) The presence of HTR4, TARL1, TARL2, and TAAR1 in several representative species in vertebrates is plotted. […]
(§3) Hana3A cells were plated onto 96-well plates (Greiner bio-one) with 50 µl growth medium (DMEM medium with 10% BCS and 5% penicillin–streptomycin solution with puromycin) and cultured at 37 °C with 5% CO2. […] The chemiluminescence of firefly luciferase and renilla luciferase were measured with a Biotek Microplate reader using the Dual-Glo Luciferase Assay System (Promega).

TARL2 = assay: Response to 16 ligands at 10 µM, luciferase assay; assay type: cell-based, coelacanth and shark; details: fig. 5B
Description: as §2, §3

mouse TAAR8a = biological target: T1, mouse TAAR8a (Mus musculus, UniProt Q5QD07); assay: Cell-based receptor activation reporter assay (SEAP / Dual-Glo luciferase)
T1 construct: bovine rhodopsin N-terminal 20 amino acids (Rho tag); expressed in transfected cells; host or cells: HEK293(T) (SEAP assay) or Hana3A (Dual-Glo assay)
Description: as §1

spotted gar TAAR1b = spotted gar TAAR1b (Lepisosteus oculatus, UniProt W5NMY1); assay: as above
Description: as §1

medaka TAAR21f = assay: as above
Description: as §1

rat TAAR8a = biological target: T2, rat TAAR8a (Rattus norvegicus, UniProt Q923X9); assay: as above
T2 construct: bovine rhodopsin N-terminal 20 amino acids (Rho tag); expressed in transfected cells; host or cells: HEK293(T) (SEAP assay) or Hana3A (Dual-Glo assay)
Description: as §1

rat TAAR7a = biological target: T3, rat TAAR7a (Rattus norvegicus, UniProt Q923Y2); assay: as above
T3 construct: bovine rhodopsin N-terminal 20 amino acids (Rho tag); expressed in transfected cells; host or cells: HEK293(T) (SEAP assay) or Hana3A (Dual-Glo assay)
Description: as §1

mouse TAAR7d = biological target: T4, mouse TAAR7d (Mus musculus, UniProt Q5QD10); assay: as above
T4 construct: bovine rhodopsin N-terminal 20 amino acids (Rho tag); expressed in transfected cells; host or cells: HEK293(T) (SEAP assay) or Hana3A (Dual-Glo assay)
Description: as §1

wild boar TAAR7 = wild boar TAAR7 (Sus scrofa, UniProt F1S3Q1); assay: as above
wild boar TAAR7, sequence (F1S3Q1 entry or part of it): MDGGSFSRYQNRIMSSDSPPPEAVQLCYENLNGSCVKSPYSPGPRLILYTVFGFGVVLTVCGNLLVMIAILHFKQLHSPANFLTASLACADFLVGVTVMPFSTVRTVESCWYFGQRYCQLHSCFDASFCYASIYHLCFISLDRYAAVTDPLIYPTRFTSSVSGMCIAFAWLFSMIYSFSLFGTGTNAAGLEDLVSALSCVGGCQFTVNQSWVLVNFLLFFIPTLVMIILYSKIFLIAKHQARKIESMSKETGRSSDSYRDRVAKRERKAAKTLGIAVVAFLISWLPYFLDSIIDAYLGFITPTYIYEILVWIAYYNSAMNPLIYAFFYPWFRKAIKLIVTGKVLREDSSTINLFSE
Description: as §1

rat TAAR9 = biological target: T5, rat TAAR9 (Rattus norvegicus, UniProt Q923Y6); assay: as above
T5 construct: bovine rhodopsin N-terminal 20 amino acids (Rho tag); expressed in transfected cells; host or cells: HEK293(T) (SEAP assay) or Hana3A (Dual-Glo assay)
T5 sequence (Q923Y6 1-338): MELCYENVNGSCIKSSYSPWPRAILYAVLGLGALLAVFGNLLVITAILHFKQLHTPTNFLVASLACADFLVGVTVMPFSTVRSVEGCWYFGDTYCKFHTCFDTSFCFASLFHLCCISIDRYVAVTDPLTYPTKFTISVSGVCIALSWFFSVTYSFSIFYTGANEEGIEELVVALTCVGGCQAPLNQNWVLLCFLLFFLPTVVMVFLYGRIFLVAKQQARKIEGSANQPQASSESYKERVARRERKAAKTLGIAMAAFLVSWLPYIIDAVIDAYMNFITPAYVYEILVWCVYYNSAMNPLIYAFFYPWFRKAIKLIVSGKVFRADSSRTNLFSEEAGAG
Description: as §1

rabbit TAAR8b = rabbit TAAR8b (Oryctolagus cuniculus, UniProt G1SRV7); assay: as above
rabbit TAAR8b, sequence (G1SRV7 entry or part of it): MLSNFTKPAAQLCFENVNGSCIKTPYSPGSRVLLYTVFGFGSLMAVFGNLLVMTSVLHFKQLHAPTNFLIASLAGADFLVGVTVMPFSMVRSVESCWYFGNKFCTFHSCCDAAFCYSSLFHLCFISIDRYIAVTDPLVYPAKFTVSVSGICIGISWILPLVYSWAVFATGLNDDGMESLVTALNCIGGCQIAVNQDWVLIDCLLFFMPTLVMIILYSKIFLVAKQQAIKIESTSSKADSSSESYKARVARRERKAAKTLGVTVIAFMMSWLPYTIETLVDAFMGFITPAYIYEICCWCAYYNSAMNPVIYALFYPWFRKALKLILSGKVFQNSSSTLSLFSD
Description: as §1

mouse TAAR6 = biological target: T6, mouse TAAR6 (Mus musculus, UniProt Q5QD13); assay: as above
T6 construct: bovine rhodopsin N-terminal 20 amino acids (Rho tag); expressed in transfected cells; host or cells: HEK293(T) (SEAP assay) or Hana3A (Dual-Glo assay)
Description: as §1

rat TAAR6 = biological target: T7, rat TAAR6 (Rattus norvegicus, UniProt Q923Y5); assay: as above
T7 construct: bovine rhodopsin N-terminal 20 amino acids (Rho tag); expressed in transfected cells; host or cells: HEK293(T) (SEAP assay) or Hana3A (Dual-Glo assay)
Description: as §1

cat TAAR6b = cat TAAR6b (Felis catus, UniProt A0ABI7X994); assay: as above
Description: as §1

mouse TAAR8c = biological target: T8, mouse TAAR8c (Mus musculus, UniProt Q5QD05); assay: as above
T8 construct: bovine rhodopsin N-terminal 20 amino acids (Rho tag); expressed in transfected cells; host or cells: HEK293(T) (SEAP assay) or Hana3A (Dual-Glo assay)
Description: as §1

mouse TAAR5 = biological target: T9, mouse TAAR5 (Mus musculus, UniProt Q5QD14); assay: as above
T9 construct: bovine rhodopsin N-terminal 20 amino acids (Rho tag); expressed in transfected cells; host or cells: HEK293(T) (SEAP assay) or Hana3A (Dual-Glo assay)
Description: as §1

shark TAARS1b = shark TAARS1b (Chiloscyllium punctatum, UniProt A0A401S5C1); assay: as above; set-up: species or system bamboo shark
shark TAARS1b, sequence (A0A401S5C1 entry or part of it): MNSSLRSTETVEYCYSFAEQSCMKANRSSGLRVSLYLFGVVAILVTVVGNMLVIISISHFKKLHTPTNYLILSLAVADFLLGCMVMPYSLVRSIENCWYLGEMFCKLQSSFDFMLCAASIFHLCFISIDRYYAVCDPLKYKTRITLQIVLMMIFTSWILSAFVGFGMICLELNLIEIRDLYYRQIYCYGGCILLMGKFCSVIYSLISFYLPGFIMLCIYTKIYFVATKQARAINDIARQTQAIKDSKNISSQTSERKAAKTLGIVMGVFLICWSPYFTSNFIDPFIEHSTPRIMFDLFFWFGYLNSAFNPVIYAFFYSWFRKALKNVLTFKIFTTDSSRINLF
Description: as §1

coelacanth TARL2 = coelacanth TARL2 (Latimeria chalumnae, UniProt H3AWX3); assay: as above
Description: as §1

spotted gar TARL1 = spotted gar TARL1 (Lepisosteus oculatus, UniProt W5NNR6); assay: as above
spotted gar TARL1, sequence (W5NNR6 entry or part of it): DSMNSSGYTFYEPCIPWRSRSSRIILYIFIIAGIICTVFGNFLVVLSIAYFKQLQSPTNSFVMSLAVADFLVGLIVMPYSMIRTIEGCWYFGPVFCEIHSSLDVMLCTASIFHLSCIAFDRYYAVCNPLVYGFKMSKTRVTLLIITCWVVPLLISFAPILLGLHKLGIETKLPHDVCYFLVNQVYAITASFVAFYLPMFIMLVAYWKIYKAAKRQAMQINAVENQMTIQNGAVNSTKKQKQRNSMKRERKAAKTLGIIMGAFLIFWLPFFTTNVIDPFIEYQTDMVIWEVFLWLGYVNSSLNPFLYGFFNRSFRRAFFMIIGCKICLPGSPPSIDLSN
Description: as §1

zebrafish TARL1 = zebrafish TARL1 (Danio rerio, UniProt A0A8M1Q794); assay: as above
Description: as §1

coelacanth TAARC1b = coelacanth TAARC1b (Latimeria chalumnae, UniProt H3A8V0); assay: as above
Description: as §1

catfish TAAR13g = catfish TAAR13g (Ictalurus punctatus, UniProt A0A2D0SG81); assay: as above
Description: as §1

(UniProt Z9G6W3R3V9) = assay: as above; details: coelacanth TARL1
Description: as §1

zebrafish TAAR1 = zebrafish TAAR1 (Danio rerio, UniProt Q5QNN1); assay: as above; details: zTAAR1
Description: as §1

mouse TAAR1 = mouse TAAR1 (Mus musculus, UniProt Q923Y8); assay: cell-based; details: mTAAR1
From the text: (§4) Next, we conducted high-throughput screening to further explore the functional properties of these aminergic receptors. We cloned 248 TAARs from 11 mammals (human, mouse, rat, guinea pig, hamster, cat, horse, rabbit, sheep, rhesus, and wild boar), two reptiles (alligator and chicken), six teleosts (zebrafish, catfish, fugu, medaka, salmon, and pufferfish), one lobed-finned fish (coelacanth), one holost fish (spotted gar), and one cartilaginous fish (bamboo shark) (fig. 2A). We also cloned eight TARLs from coelacanth, zebrafish, catfish, fugu, medaka, spotted gar, shark, and 28 TARLLs from sea lamprey (supplementary table S2, Supplementary Material online). In addition, we cloned two HTR4s from mouse and zebrafish. We then challenged all of the cloned receptors with a ligand library comprised 97 amines at 100 µM.
We then compared the responses of HTR4 from mouse and zebrafish, TARL1 from zebrafish, catfish, fugu, medaka, spotted gar, and coelacanth, TARL2 from coelacanth and shark, TAAR1 from mouse and zebrafish to the 16 ligands at 10 µM (fig. 5B).
(§5) HEK293 cells were plated onto poly-D-lysine (Sigma–Aldrich) preincubated 96-well plates (Corning) with 50 µl growth medium (DMEM medium with 10% BCS and 5% penicillin–streptomycin solution) and cultured for 18–24 h. Receptor plasmids were cotransfected with Cre-SEAP plasmid using polyethylenimine (PEI, Polysciences) and incubated at 37 °C with 5% CO2. About 4 h later, cells were incubated with or without test compounds diluted in serum-free DMEM for 48 h, followed by incubating for 2 h at 70 °C. After returning to room temperature, 50 µl supernatant from each well was incubated with an equal volume of 0.3 mM 4-methylumbelliferyl phosphate (4-MUP, Sigma–Aldrich) in 2 M diethanolamine bicarbonate (Sigma–Aldrich), pH 10.0 for 15 min. Fluorescence was measured with a BioTek Microplate reader.
(§6) Hana3A cells were plated onto 96-well plates (Greiner bio-one) with 50 µl growth medium (DMEM medium with 10% BCS and 5% penicillin–streptomycin solution with puromycin) and cultured at 37 °C with 5% CO2. After 18–24 h, cells in each well were cotransfected with 50 ng receptor plasmid, 10 ng CRE-Luc, 10 ng pRL-SV40, and 10 ng mRTPs using Lipofectamine 2000 (Invitrogen), and incubated for 18 h. Medium was then replaced by 25 µl CD293 (Invitrogen) containing 1% glutamine with or without test compounds for 4 h. The chemiluminescence of firefly luciferase and renilla luciferase were measured with a Biotek Microplate reader using the Dual-Glo Luciferase Assay System (Promega).

mouse HTR4 = mouse HTR4 (Mus musculus, UniProt P97288); assay: cell-based
mouse HTR4, sequence (P97288 whole entry): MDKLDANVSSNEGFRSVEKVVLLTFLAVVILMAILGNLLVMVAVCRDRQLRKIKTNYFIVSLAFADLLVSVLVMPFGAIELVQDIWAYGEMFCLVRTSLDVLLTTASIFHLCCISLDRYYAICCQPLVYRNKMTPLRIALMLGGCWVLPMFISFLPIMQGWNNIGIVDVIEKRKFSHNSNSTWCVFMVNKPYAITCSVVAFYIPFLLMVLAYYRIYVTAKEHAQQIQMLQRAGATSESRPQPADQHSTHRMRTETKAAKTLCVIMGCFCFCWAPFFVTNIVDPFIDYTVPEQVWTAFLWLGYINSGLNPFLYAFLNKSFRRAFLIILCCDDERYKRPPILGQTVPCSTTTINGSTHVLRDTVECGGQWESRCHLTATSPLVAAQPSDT
From the text: as §4, §5, §6

TARLL1b = TARLL1b (Petromyzon marinus, UniProt A0AAJ7TCG4); assay: Cell-based receptor activation reporter assay (SEAP / Dual-Glo luciferase); set-up: species or system sea lamprey; details: TARLL1b
Description: as §1

shark TARL2 = shark TARL2 (Chiloscyllium punctatum, UniProt A0A401SGR3); assay: as above; set-up: species or system bamboo shark
Description: as §1

catfish TAAR13f = catfish TAAR13f (Ictalurus punctatus, UniProt A0A2D0SGW4); assay: as above
Description: as §1

catfish TAAR13h = catfish TAAR13h (Ictalurus punctatus, UniProt A0A2D0SG84); assay: as above
catfish TAAR13h, sequence (A0A2D0SG84 entry or part of it): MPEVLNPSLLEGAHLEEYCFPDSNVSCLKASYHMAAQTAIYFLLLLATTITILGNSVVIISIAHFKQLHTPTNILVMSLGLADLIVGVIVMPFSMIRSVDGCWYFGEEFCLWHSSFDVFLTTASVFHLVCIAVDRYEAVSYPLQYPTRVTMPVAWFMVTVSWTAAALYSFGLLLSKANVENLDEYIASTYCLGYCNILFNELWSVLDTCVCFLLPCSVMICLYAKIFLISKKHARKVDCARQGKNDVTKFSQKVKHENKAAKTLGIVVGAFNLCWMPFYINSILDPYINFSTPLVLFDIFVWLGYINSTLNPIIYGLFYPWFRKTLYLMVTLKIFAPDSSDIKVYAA
Description: as §1

cat TAAR5 = cat TAAR5 (Felis catus, UniProt A0ABI7YAE2); assay: as above
Description: as §1

sheep TAAR5 = sheep TAAR5 (Ovis aries, UniProt A0ACI6PZ16); assay: as above
sheep TAAR5, sequence (A0ACI6PZ16 entry or part of it): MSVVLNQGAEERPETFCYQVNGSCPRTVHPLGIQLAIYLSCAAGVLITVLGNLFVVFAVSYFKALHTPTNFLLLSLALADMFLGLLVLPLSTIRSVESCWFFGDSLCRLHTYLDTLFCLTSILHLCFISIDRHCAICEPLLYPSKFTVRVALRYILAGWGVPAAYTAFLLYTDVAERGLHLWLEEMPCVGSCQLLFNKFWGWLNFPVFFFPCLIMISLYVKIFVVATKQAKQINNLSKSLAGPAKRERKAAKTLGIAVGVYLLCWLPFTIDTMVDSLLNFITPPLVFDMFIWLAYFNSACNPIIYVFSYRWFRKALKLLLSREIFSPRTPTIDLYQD
Description: as §1

cow TAAR5 = cow TAAR5 (Bos taurus, UniProt F1MTC9); assay: cell-based; details: EC50 (μM)
cow TAAR5, sequence (F1MTC9 entry or part of it): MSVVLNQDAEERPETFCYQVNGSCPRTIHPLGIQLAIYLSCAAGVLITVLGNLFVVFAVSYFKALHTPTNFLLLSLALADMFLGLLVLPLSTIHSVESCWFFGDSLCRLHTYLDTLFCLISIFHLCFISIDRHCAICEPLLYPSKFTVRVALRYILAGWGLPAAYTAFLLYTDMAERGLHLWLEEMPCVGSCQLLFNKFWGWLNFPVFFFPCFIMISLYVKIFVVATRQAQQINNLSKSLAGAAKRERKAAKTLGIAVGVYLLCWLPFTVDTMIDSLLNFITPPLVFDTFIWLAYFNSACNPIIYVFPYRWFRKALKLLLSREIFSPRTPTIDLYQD
From the text: as §4, §5, §6

hamster TAAR5 = hamster TAAR5 (Mesocricetus auratus, UniProt A0A1U7QEC3); assay: cell-based
From the text: as §4, §5, §6

zebrafish TAAR12j, sequence (Q5QNN7 entry or part of it): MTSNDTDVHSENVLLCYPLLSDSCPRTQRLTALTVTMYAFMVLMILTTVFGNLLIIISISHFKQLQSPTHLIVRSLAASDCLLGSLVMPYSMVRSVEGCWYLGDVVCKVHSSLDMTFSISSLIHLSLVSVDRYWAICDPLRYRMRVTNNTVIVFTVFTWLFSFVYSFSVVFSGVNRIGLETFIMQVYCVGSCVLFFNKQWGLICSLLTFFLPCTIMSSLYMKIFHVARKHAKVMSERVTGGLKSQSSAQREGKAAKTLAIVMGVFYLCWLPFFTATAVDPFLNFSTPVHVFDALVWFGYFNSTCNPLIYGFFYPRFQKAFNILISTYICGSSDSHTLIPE

NCCc1ccccc1 [Phenylethylamine, phenylethylamine]
EC50 (zebrafish TAAR12j): 4.8 µM | EC50 (guinea pig TAAR4): 150 µM and ~150 µM | EC50 (cat TAAR4): 30 µM and ~30 µM | EC50 (cow TAAR4): 98.4 µM | EC50 (horse TAAR4): 100 µM and ~100 µM | EC50 (hamster TAAR4): 300 µM and ~300 µM | TARL1 ligand profile (TARL1): ligands include | TARL2 ligand profile (TARL2): cannot recognize

C1CCNCC1 [Piperidine, piperidine]
EC50 (mouse TAAR8a): ~300 µM

NCCc1ccc(O)cc1 [Tyramine, tyramine]
EC50 (spotted gar TAAR1b): 0.7 µM | EC50 (medaka TAAR21f): 0.09 µM

CN(C)C1CCCCC1 [N,N-dimethylcyclohexylamine]
EC50 (rat TAAR8a): 27.6 µM | EC50 (rat TAAR7a): 49.5 µM | EC50 (mouse TAAR7d): 107 µM | EC50 (wild boar TAAR7): 50 µM and ~50 µM | EC50 (rat TAAR9): ~30 µM | EC50 (rabbit TAAR8b): ~50 µM | EC50 (mouse TAAR6): ~50 µM | EC50 (rat TAAR6): ~50 µM | EC50 (cat TAAR6b): 101 µM

CN1CCCCC1 [1-methylpiperidine]
EC50 (mouse TAAR8c): 1.5 µM | EC50 (mouse TAAR5): 8.2 µM | EC50 (shark TAARS1b): 17.6 µM

NCCc1c[nH]c2ccccc12 [Tryptamine, tryptamine]
EC50 (coelacanth TARL2): ~200 µM | EC50 (spotted gar TARL1): 3.1 µM | EC50 (zebrafish TARL1): 0.04 µM | EC50 (coelacanth TAARC1b): ~150 µM | EC50 (catfish TAAR13g): ~30 µM | EC50 ((UniProt Z9G6W3R3V9)): 18.1 µM | EC50 (zebrafish TAAR1): ~52 µM | TARL1 ligand profile (TARL1): ligands include | EC50 (mouse TAAR1): ~28 µM | EC50 (mouse HTR4): ~180 µM | EC50 (TARLL1b): ~100 µM | EC50 (shark TARL2): ~40 µM

N=C(N)NCCCCN [Agmatine, agmatine]
EC50 (catfish TAAR13f): 0.04 nM | EC50 (catfish TAAR13h): 165 µM

CN(C)C [Trimethylamine, trimethylamine]
EC50 (cat TAAR5): 6.9 µM | EC50 (sheep TAAR5): 500 µM and ~500 µM | EC50 (cow TAAR5): 300 µM and ~300 µM | EC50 (hamster TAAR5): 2.3 µM | EC50 (shark TAARS1b): 1.4 µM
